Experimental findings from PMC10175255, “The cell wall lipoprotein CD1687 acts as a DNA binding protein during deoxycholate-induced biofilm formation in Clostridioides difficile” (NPJ Biofilms and Microbiomes, 2023) are described below.

Structures are written as SMILES.

The assay has as its target T1, CD1687 (Clostridioides difficile, UniProt Q186P2).
T1 construct: gene CD630_16870; signal peptide removed, hexahistidine tag kept, expressed in E. coli Bli5 from a pET20-derived plasmid, Ni-NTA purified
In words: surface plasmon resonance (Biacore T200), His-tagged protein captured on Ni-NTA chip. The format is binding. (In general: In SPR one partner is held on a chip, and binding of the other changes the refractive index at the surface.)

T1 sequence (Q186P2 entry or part of it): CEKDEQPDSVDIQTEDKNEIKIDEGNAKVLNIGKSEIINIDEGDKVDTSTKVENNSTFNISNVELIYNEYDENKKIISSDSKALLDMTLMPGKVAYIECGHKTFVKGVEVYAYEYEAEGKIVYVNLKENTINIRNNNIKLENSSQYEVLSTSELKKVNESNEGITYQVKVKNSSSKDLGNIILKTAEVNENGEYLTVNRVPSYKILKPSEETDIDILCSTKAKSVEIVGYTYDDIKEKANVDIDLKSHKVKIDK

For `C[C@H](CCC(=O)O)[C@H]1CC[C@H]2[C@@H]3CC[C@@H]4C[C@H](O)CC[C@]4(C)[C@H]3C[C@H](O)[C@]12C` [deoxycholate], the equilibrium dissociation constant (Kd) (in general, the free concentration of one partner at which half of the binding sites on the other are occupied at equilibrium, for simple one-to-one binding) is 1650 ± 580 µM.
